Assay results from ChEMBL document CHEMBL1201862, “PubChem BioAssay data set” (2004).
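Dose response: 5 concentrations. Exposure: 48 h. Format: 96-well plates. Endpoint: linear interpolation; highest concentration if not reached. GI50 = concentration required for 50% inhibition of growth.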 The source made the active and inactive calls. Rule as the data show it: active = GI50 up to about 1.1 µM and inactive = higher.

Columns and labels:
Assay in all cases: NCI tumour cell line growth inhibition, 48 h
HOP-62 = system: HOP-62
OVCAR-3 = system: OVCAR-3
TK-10 = system: TK-10
HT-29 = system: HT-29
UACC-62 = system: UACC-62
SK-OV-3 = system: SK-OV-3
SF-295 = system: SF-295
LXFL 529 = system: LXFL 529
MOLT-4 = system: MOLT-4
NCI-H460 = system: NCI-H460
NCI-H522 = system: NCI-H522
HCT-15 = system: HCT-15
HCC 2998 = system: HCC 2998
RXF 393 = system: RXF 393
A549 = system: A549
OVCAR-8 = system: OVCAR-8
COLO 205 = system: COLO 205
ACHN = system: ACHN
SF-539 = system: SF-539
OVCAR-4 = system: OVCAR-4
SW-620 = system: SW-620
A498 = system: A498
Malme-3M = system: Malme-3M
SK-MEL-2 = system: SK-MEL-2
NCI-H226 = system: NCI-H226
UO-31 = system: UO-31
HOP-92 = system: HOP-92
SN12C = system: SN12C
DMS-273 = system: DMS-273
HOP-18 = system: HOP-18
M14 = system: M14
SNB-19 = system: SNB-19
DMS-114 = system: DMS-114
HCT-116 = system: HCT-116
DLD-1 = system: DLD-1
RPMI-8226 = system: RPMI-8226
SK-MEL-5 = system: SK-MEL-5
SK-MEL-28 = system: SK-MEL-28
SF-268 = system: SF-268
LOX IMVI = system: LOX IMVI
KM-20L2 = system: KM-20L2
EKVX = system: EKVX
RXF 631 = system: RXF 631
IGROV-1 = system: IGROV-1
CAKI-1 = system: CAKI-1
CCRF-CEM = system: CCRF-CEM
K562 = system: K562
HL-60 = system: HL-60
M19-MEL = system: M19-MEL
SNB-75 = system: SNB-75
U-251 = system: U-251
NCI-H23 = system: NCI-H23
KM12 = system: KM12
786-0 = system: 786-0
UACC-257 = system: UACC-257
OVCAR-5 = system: OVCAR-5
SR = system: SR
SNB-78 = system: SNB-78
XF498 = system: XF498

CCOC(=O)c1ncn2c1[nH]c(=S)c1ccccc12
GI50 (HOP-62): > 100 µM (inactive) | GI50 (OVCAR-3): > 100 µM (inactive) | GI50 (TK-10): > 100 µM (inactive) | GI50 (HT-29): > 100 µM (inactive) | GI50 (UACC-62): > 100 µM (inactive) | GI50 (SK-OV-3): > 100 µM (inactive) | GI50 (SF-295): > 100 µM (inactive) | GI50 (LXFL 529): > 100 µM (inactive) | GI50 (MOLT-4): > 100 µM (inactive) | GI50 (NCI-H460): > 100 µM (inactive) | GI50 (NCI-H522): 73.6 µM (inactive) | GI50 (HCT-15): > 100 µM | GI50 (HCC 2998): > 100 µM (inactive) | GI50 (RXF 393): > 100 µM (inactive) | GI50 (A549): > 100 µM (inactive) | GI50 (OVCAR-8): > 100 µM (inactive) | GI50 (COLO 205): 49.8 µM (inactive) | GI50 (ACHN): > 100 µM (inactive) | GI50 (SF-539): > 100 µM (inactive) | GI50 (OVCAR-4): > 100 µM (inactive) | GI50 (SW-620): 22.9 µM (inactive) | GI50 (A498): > 100 µM (inactive) | GI50 (Malme-3M): > 100 µM (inactive) | GI50 (SK-MEL-2): > 100 µM (inactive) | GI50 (NCI-H226): > 100 µM (inactive) | GI50 (UO-31): > 100 µM (inactive) | GI50 (HOP-92): > 100 µM (inactive) | GI50 (SN12C): > 100 µM (inactive) | GI50 (DMS-273): 44.1 µM (inactive) | GI50 (HOP-18): > 100 µM (inactive) | GI50 (M14): > 100 µM (inactive) | GI50 (SNB-19): > 100 µM (inactive) | GI50 (DMS-114): 49.1 µM (inactive) | GI50 (HCT-116): > 100 µM (inactive) | GI50 (DLD-1): > 100 µM (inactive) | GI50 (RPMI-8226): 31.3 µM (inactive) | GI50 (SK-MEL-5): > 100 µM (inactive) | GI50 (SK-MEL-28): > 100 µM (inactive) | GI50 (SF-268): > 100 µM (inactive) | GI50 (LOX IMVI): 61.7 µM (inactive) | GI50 (KM-20L2): > 100 µM (inactive) | GI50 (EKVX): > 100 µM (inactive) | GI50 (RXF 631): > 100 µM (inactive) | GI50 (IGROV-1): > 100 µM (inactive) | GI50 (CAKI-1): > 100 µM (inactive) | GI50 (CCRF-CEM): 50.2 µM (inactive) | GI50 (K562): 91.6 µM (inactive) | GI50 (HL-60): > 100 µM (inactive) | GI50 (M19-MEL): > 100 µM (inactive) | GI50 (SNB-75): > 100 µM (inactive) | GI50 (U-251): 46.9 µM (inactive) | GI50 (NCI-H23): > 100 µM (inactive) | GI50 (KM12): > 100 µM (inactive) | GI50 (786-0): > 100 µM (inactive) | GI50 (UACC-257): > 100 µM (inactive) | GI50 (OVCAR-5): > 100 µM (inactive)

CCN(CC)C(=S)S [DITIOCARB SODIUM]
GI50 (HOP-62): > 100 µM (inactive) | GI50 (TK-10): > 100 µM (inactive) | GI50 (HT-29): 0.216 µM (active) | GI50 (UACC-62): 0.388 µM (active) | GI50 (SK-OV-3): > 100 µM (inactive) | GI50 (SF-295): > 79.6 µM (inactive) | GI50 (LXFL 529): > 100 µM (inactive) | GI50 (NCI-H460): 0.373 µM (active) | GI50 (NCI-H522): 0.103 µM (active) | GI50 (SR): 0.0354 µM (active) | GI50 (SNB-78): > 100 µM (inactive) | GI50 (HCT-15): > 62.5 µM | GI50 (HCC 2998): 33.6 µM (inactive) | GI50 (RXF 393): > 57.4 µM (inactive) | GI50 (OVCAR-8): > 56.1 µM (inactive) | GI50 (COLO 205): 0.0713 µM (active) | GI50 (ACHN): 53.7 µM (inactive) | GI50 (SF-539): > 60.4 µM (inactive) | GI50 (SW-620): 0.117 µM (active) | GI50 (Malme-3M): 19.1 µM (inactive) | GI50 (SK-MEL-2): > 81.1 µM (inactive) | GI50 (NCI-H226): > 100 µM (inactive) | GI50 (XF498): 0.221 µM (active) | GI50 (UO-31): > 100 µM (inactive) | GI50 (HOP-92): > 76.6 µM (inactive) | GI50 (SN12C): > 70 µM (inactive) | GI50 (HOP-18): > 100 µM (inactive) | GI50 (M14): 41.7 µM (inactive) | GI50 (SNB-19): > 100 µM (inactive) | GI50 (DMS-114): 0.0968 µM (active) | GI50 (HCT-116): 0.0323 µM (active) | GI50 (DLD-1): 88.5 µM (inactive) | GI50 (RPMI-8226): 0.528 µM (active) | GI50 (SK-MEL-5): 1.63 µM (inactive) | GI50 (SK-MEL-28): > 47.9 µM (inactive) | GI50 (SF-268): > 79.1 µM (inactive) | GI50 (LOX IMVI): > 55.5 µM (inactive) | GI50 (KM-20L2): 69 µM (inactive) | GI50 (EKVX): > 100 µM (inactive) | GI50 (RXF 631): 3.27 µM (inactive) | GI50 (CCRF-CEM): 0.0443 µM (active) | GI50 (K562): 0.138 µM (active) | GI50 (HL-60): 0.294 µM (active) | GI50 (M19-MEL): 0.439 µM (active) | GI50 (SNB-75): 0.261 µM (active) | GI50 (U-251): 0.299 µM (active) | GI50 (KM12): 0.646 µM (active) | GI50 (786-0): 67.9 µM (inactive) | GI50 (UACC-257): 21.2 µM (inactive) | GI50 (OVCAR-5): > 100 µM (inactive)

O=C1CC(c2ccc(Cl)cc2)=Nc2ccccc2N1
GI50 (HOP-62): 40.6 µM (inactive) | GI50 (OVCAR-3): 84.9 µM (inactive) | GI50 (TK-10): 43.3 µM (inactive) | GI50 (HT-29): > 100 µM (inactive) | GI50 (UACC-62): > 100 µM (inactive) | GI50 (SK-OV-3): 32.7 µM (inactive) | GI50 (SF-295): 86.7 µM (inactive) | GI50 (LXFL 529): > 100 µM (inactive) | GI50 (MOLT-4): > 100 µM (inactive) | GI50 (NCI-H460): 34.7 µM (inactive) | GI50 (NCI-H522): 40.9 µM (inactive) | GI50 (SR): 37.8 µM (inactive) | GI50 (SNB-78): 86.7 µM (inactive) | GI50 (HCT-15): 65.8 µM | GI50 (HCC 2998): 97.1 µM (inactive) | GI50 (RXF 393): 29.9 µM (inactive) | GI50 (A549): > 100 µM (inactive) | GI50 (OVCAR-8): 25.9 µM (inactive) | GI50 (COLO 205): > 100 µM (inactive) | GI50 (ACHN): 69.5 µM (inactive) | GI50 (SF-539): 96.6 µM (inactive) | GI50 (OVCAR-4): 28.6 µM (inactive) | GI50 (SW-620): 18.8 µM (inactive) | GI50 (A498): 79.6 µM (inactive) | GI50 (Malme-3M): > 100 µM (inactive) | GI50 (SK-MEL-2): > 100 µM (inactive) | GI50 (NCI-H226): > 100 µM (inactive) | GI50 (UO-31): 48 µM (inactive) | GI50 (HOP-92): 26.4 µM (inactive) | GI50 (SN12C): 46.7 µM (inactive) | GI50 (DMS-273): 79.1 µM (inactive) | GI50 (HOP-18): 40.9 µM (inactive) | GI50 (M14): > 100 µM (inactive) | GI50 (SNB-19): 51.6 µM (inactive) | GI50 (DMS-114): 81.5 µM (inactive) | GI50 (HCT-116): 28.6 µM (inactive) | GI50 (DLD-1): > 100 µM (inactive) | GI50 (SK-MEL-5): > 100 µM (inactive) | GI50 (SK-MEL-28): > 100 µM (inactive) | GI50 (SF-268): > 100 µM (inactive) | GI50 (LOX IMVI): 24.2 µM (inactive) | GI50 (KM-20L2): > 100 µM (inactive) | GI50 (EKVX): 47.3 µM (inactive) | GI50 (RXF 631): 74.6 µM (inactive) | GI50 (IGROV-1): > 100 µM (inactive) | GI50 (CAKI-1): > 100 µM (inactive) | GI50 (CCRF-CEM): 15.1 µM (inactive) | GI50 (K562): 40 µM (inactive) | GI50 (HL-60): 19.3 µM (inactive) | GI50 (M19-MEL): > 100 µM (inactive) | GI50 (SNB-75): 20.6 µM (inactive) | GI50 (U-251): 20.7 µM (inactive) | GI50 (NCI-H23): 65.8 µM (inactive) | GI50 (KM12): > 100 µM (inactive) | GI50 (786-0): 36.1 µM (inactive) | GI50 (UACC-257): 80.7 µM (inactive) | GI50 (OVCAR-5): > 100 µM (inactive)
